# Measured values from patent publication US20250312349A1, “COMPOSITION AND METHODS OF TREATING INTRACELLULAR PATHOGEN INFECTION” (UNIVERSITY HOSPITALS CLEVELAND MEDICAL CENTER, priority 2024, published 2025).
# Columns and labels:
# [1] = test system: phospho-S473 Akt and PTEN around tachyzoites; experiment: Immunofluorescence of brain sections from infected mice treated for four days; type: in vivo, C57BL/6 mice; conditions: 10 mg kg^-1 twice daily for 4 days
# Text: Scale bar, 50 m. […] Scale bar, 50 m. […] (G). […] Results are representative of 2 independent experiments. […] Scale bar, 10 m.
# C57BL/6 mice (Jackson Laboratories, Bar Harbor, ME) or Becn 1^+/− (C57BL/6 background; gift from Beth Levine, University of Texas Southwestern, Dallas, TX) were bred at the Animal Resource Center at Case Western Reserve University. Female mice between the ages of 6 to 8 weeks old were infected with 10 cysts of the ME49 T. gondii for four weeks. In certain experiments, mice were euthanized at 4 weeks to evaluate severity of ocular and cerebral toxoplasmosis.
# PTEN = experiment: Immunoblot of PTEN phosphorylation in T. gondii-infected CHO cells; type: cell-based, Chinese Hamster; conditions: lysates at 2 h
# Method: Membranes were probed with antibodies against Src, phospho-Y416 Src, Akt, phospho-S473 Akt, PTEN, phospho-[…] PTEN, PI3K, phospho-Y458/Y199 PI3K, ULK1, EGFR, HA tag (all from Cell Signaling, Danvers, MA), phospho-Y240 PTEN (Sigma) and Actin (Santa Cruz Biotechnologies) followed by incubation with secondary antibodies (Cell Signaling and Santa Cruz Biotechnologies). Three independent experiments were performed.
# LC3 = experiment: Immunofluorescence of LC3 accumulation around parasites; type: cell-based; conditions: CHO cells and brain endothelial cells expressing DN EGFR, 1 μM, 5 hours
# Method: FIGS. 3(A-L) illustrate images and graphs showing T. gondii killing induced by Src inhibition is mediated by autophagy. (A-C) CHO cells and primary brain endothelial cells expressing WT or DN EGFR were infected with RFP-T. gondii and treated with Saracatinib 1 μM for 5 hours before staining with an anti-LC3 antibody. Accumulation of LC3 around the parasites was assessed by confocal microscopy. Scale bar, 10 μm. (D-F) CHO cells and primary brain endothelial cells expressing WT or DN EGFR were infected with RFP-T. gondii and treated with Saracatinib 1 μM for 7 hours before staining with anti-LAMP1 antibody. Accumulation of LAMP1 around parasites was assessed as above. G-I) CHO cells and primary brain endothelial cells expressing WT or DN EGFR were transfected with control siRNA or ULK1 siRNA. Relative density of ULK1 was normalized to total Actin followed by normalization relative to Ctr siRNA. […] Cells were treated with or without Saracatinib and infected with RH T. gondii. Monolayers were examined at 24 h. […]
# Mammalian cells were infected with RFP-T. gondii (RH) and fixed with 4% paraformaldehyde. […] LC3 and LAMP1 were evaluated for accumulation at 5- and 7 hours post-infection, respectively. […] Parasites were evaluated blindly in multiple random fields of view and 100 parasites were examined per group. […]
# ME49 T. gondii [2] = experiment: Suboptimal dose combination in mice with ocular and cerebral toxoplasmosis; type: in vivo, C57BL/6 mice; conditions: 2.5 mg/Kg once a day, 14 days
# Method: C57BL/6 mice that had been infected with tissue cysts of ME49 T. gondii for 4 weeks (at a time when animals have developed ocular and cerebral toxoplasmosis), were treated with suboptimal dose of Saracatinib (2.5 mg/Kg once a day) with or without suboptimal dose of Pyrimethamine (4.2 mg/Kg once a day) for 14 days.
# ME49 T. gondii [3] = experiment: Pre-established ocular and cerebral toxoplasmosis in B6 mice, 4 weeks of treatment; type: in vivo, C57BL/6 mice; conditions: four weeks
# Text: Brains and eyes were fixed in 10% formalin before paraffin embedding. Hematoxylin & eosin (H&E) and periodic acid Schiff hematoxylin (P.A.S.H) were used to stain sections from eyes and brains respectively. Brain and ocular histopathology were scored as described previously.
# T. gondii = experiment: In-out assay of parasite invasion of host cells (SAG1 staining); type: cell-based, Toxoplasma gondii; conditions: CHO cells, 1 μM, RH-RFP T. gondii, 2 hours
# Method: (A) CHO cells were treated with Saracatinib (1 μM) and infected with RH-RFP T. gondii for 2 hours. Cells were fixed with Paraformaldehyde (PFA) and were not permeabilized prior to staining with a tachyzoite marker, SAG1. […] will express red fluorescence while extracellular parasites stain for SAG1 and appear green or yellow in color. Data are shown as mean±SEM. The graphs show data from 7 independent monolayers pooled from 2 different experiments. (B) CHO cells were treated with Saracatinib (1 μM) and infected with RH-RFP T. gondii for 24 hours. Number of tachyzoites per vacuole were determined by light microscopy and quantified as percentage of total vacuoles. Data are shown as mean±SEM. The graphs show data from 6 independent monolayers pooled from 3 different experiments. […] (PDF)
# Mammalian cells were infected with RFP-T. gondii (RH) and fixed with 4% paraformaldehyde. Cells were stained with antibodies against LC3 (MBL International, Woburn, MA), LAMP1 (DSHB, Iowa City, IA), or GRA7 (gift from John Boothroyd, Stanford University, Stanford, CA) followed by a fluorescently conjugated secondary antibodies (Jackson ImmunoResearch Laboratories, West Grove, PA). LC3 and LAMP1 were evaluated for accumulation at 5- and 7 hours post-infection, respectively. […] Parasites were evaluated blindly in multiple random fields of view and 100 parasites were examined per group. […]
# phospho-S473 Akt = experiment: Confocal microscopy of phospho-S473 Akt accumulation around parasites in CHO cells; type: cell-based, Chinese Hamster; conditions: RFP-T. gondii
# Method: Mammalian cells were infected with RFP-T. gondii (RH) and fixed with 4% paraformaldehyde. Cells were stained with antibodies against LC3 (MBL International, Woburn, MA), LAMP1 (DSHB, Iowa City, IA), or GRA7 (gift from John Boothroyd, Stanford University, Stanford, CA) followed by a fluorescently conjugated secondary antibodies (Jackson ImmunoResearch Laboratories, West Grove, PA). LC3 and LAMP1 were evaluated for accumulation at 5- and 7 hours post-infection, respectively. Cells were stained with antibodies against PTEN (Santa Cruz Biotechnology, Dallas, TX) or anti-phospho S473 Akt (Novus, Centennial, CO). Frozen brain sections were stained with antibodies against PTEN (Novus, Centennial, CO), phospho S473 Akt, SAG-1 (Invitrogen, Waltham, MA) or T. gondii (Biogenex, Fremont, CA). Parasites were evaluated blindly in multiple random fields of view and 100 parasites were examined per group. In-out assays were performed as described using RFP-T gondii, anti-SAG-1 antibody (Invitrogen, Waltham, MA) and an Alexa Fluor 488-conjugated secondary antibody. Olympus FV1200 confocal microscope (Evident/Olympus, Waltham, MA) equipped with UPlanSApa 60× and 100× 1.45NA objectives was used to evaluate the slides.
# [4] = Brain penetration and tolerability of Saracatinib; type: in vivo; conditions: mice, 10 or 15 mg kg^-1 twice per day
# [5] = in vivo; cited from earlier work
# [6] = 10 or 15 mg kg^-1 oral gavage twice per day
compound,measurement,setting,value
"CN1CCN(CCOc2cc(OC3CCOCC3)c3c(Nc4c(Cl)ccc5c4OCO5)ncnc3c2)CC1 [Saracatinib, N-(5-chloro-1,3-benzodioxol-4-yl)-7-(2-(4-methylpiperazin-1-yl)ethoxy)-5-(tetrahydro-2H-pyran-4-yloxy)quinazolin-4-amine]",phospho-S473 Akt accumulation around tachyzoites,[1],markedly reduced
same,recruitment of PTEN around tachyzoites,[1],induced recruitment
same,"PTEN phosphorylation at Tyr240, Ser380 and Thr382/383",PTEN,reduced
same,accumulation of LC3 around the parasites,LC3,induced accumulation
same,load of tissue cysts,ME49 T. gondii [2],neither the low dose Saracatinib nor the low dose Pyrimethamine decreased
same,mice with no significant ocular inflammation,ME49 T. gondii [3]; 15 mg kg^-1 twice per day,75%
same,perivascular and diffuse inflammation in the brains,ME49 T. gondii [3]; 15 mg kg^-1 twice per day,No significant perivascular and diffuse inflammation were detected
same,histopathology in eye and brain,ME49 T. gondii [3]; [6],marked reduction
same,parasite load in the eye and brain,ME49 T. gondii [3]; [6],profound reduction
same,parasite invasion of host cells,T. gondii,did not affect
same,accumulation of phospho-S473 Akt around intracellular parasites,phospho-S473 Akt,inhibited
same,predicted brain concentrations,[4],~0.2 µM
same,blood-brain barrier penetration,[5],penetrates the blood-brain barrier
same,tolerability,[5],well-tolerated
